The values that follow are results of earlier work, collected in patent US7881871B2, “Method for designing surfaces” (Bio-Layer Pty Limited, priority 2003, dated 2011).

Read-outs that look alike come from different tables or passages of the source.

For data set [1], the system named is monoclonal antibodies (IgG subclasses).

Consider “Protein A: 42,000 dalton cell-wall-associated protein of S. Aureus with IgG binding activity”, for which the affinity for antibodies result with antibodies (Fc fragment) (horse, cow and mouse antibodies) was “moderate affinity”; with antibodies (Fc fragment) (human, pig, rabbit and guinea pig antibodies), “high affinity”; in the data set with antibodies (Fc fragment) (sheep, goat, chicken, hamster and rat antibodies), “low or no affinity”. Besides, the “affinity for monoclonal antibodies” value in data set [1] (human IgG1, IgG2, IgG3, mouse IgG2a and IgG2b) is recorded as “high affinity”; in data set [1] (human IgG1, rat IgG1, IgG2a and IgG2b) it was “no affinity”; in data set [1] (mouse IgG1 and IgG3, rat IgG2c), “moderate or low affinity”.

For “Protein G: 30,000 to 35,000 dalton protein isolated from the cell wall of beta-hemolytic Streptococci”, the affinity for antibodies entry is reported as “low affinity” with antibodies (Fc fragment) (chicken antibodies); “high affinity” in the data set with antibodies (Fc fragment) (human, horse, cow, pig and rabbit antibodies); “moderate affinity” in the data set with antibodies (Fc fragment) (sheep, goat, hamster, guinea pig, rat and mouse antibodies). The “affinity for monoclonal antibodies” value is “high affinity” in data set [1] (human IgG1, IgG2, IgG3 and IgG4, mouse IgG1, IgG2a, IgG2b and IgG3, rat IgG2a); “moderate or low affinity” in data set [1] (rat IgG1, IgG2b and IgG2c).
